Assay [1] deals with T1, His-tagged BRD4 BD2 (333-460) (Homo sapiens, UniProt O60885).
T1 construct: The same assay was developed for His-tagged BRD4 BD2 (333-460) and biotinylated histone H4K5/8/12/16(Ac) peptide
Description: AlphaLISA competition assay, BRD4 BD2. Type of assay: binding. The note with it: BRD4-BD2, AlphaLISA competition with biotinylated histone H4K5/8/12/16(Ac) peptide, 20 nM. As for the experimental part: (§1) Exemplary compounds were tested for ability to bind to bromodomain-containing protein 4 (BRD4).
(§2) Compounds were tested using a developed AlphaLISA competition assay. Briefly, His-tagged BRD4 BD1 (46-168) and biotinylated histone H4K5/8/12/16(Ac) peptide (ANASPEC, AS-64989-1) were incubated in 20 mM HEPES pH 7.5, 100 mM NaCl, 0.5 mM TCEP, 0.1% BSA, 0.02% CHAPS at a final concentration of 10 nM. Test compounds were serially diluted ten times in the same buffer and were added to the BRD4-peptide mixture for 1 h incubation at room temperature. Following incubation, Streptavidin AlphaLISA acceptor beads (PerkinElmer, AL125M) were added to BRD4-peptide-compound samples to a final concentration of 0.01 mg/mL for a 0.5 h incubation at room temperature in the dark. Following incubation, the same amount of Nickel Chelate Alpha donor beads (PerkinElmer, AS101M) were added to the samples for a final 1 h incubation. The AlphaLISA signals were measured using an EnVision plate reader (PerkinElmer). The data were uploaded to Screening Ultra (Dotmatics) to determine the half-maximal inhibitory concentration (IC50) for each test compound.
The same assay was developed for His-tagged BRD4 BD2 (333-460) and biotinylated histone H4K5/8/12/16(Ac) peptide at a final concentration of 20 nM.
In general terms: In Alpha technology, singlet oxygen from a donor bead excites a nearby acceptor bead.

Assay [2] relates to T-Rex 293 cell line SC cells lacking increased expression of BCL6 protein. As to the kind of experiment: Cellular growth inhibition assay, T-Rex 293 SC cells without doxycycline (CellTiter-Glo). The note with it: T-Rex 293 SC cells not exposed to doxycycline (no increased BCL6 expression), 72 hours, CellTiter-Glo 2.0. It counts as cell-based. As for the experimental part: (§3) Exemplary compounds were tested for ability to inhibit the proliferation of the following types of cells: (i) a T-Rex 293 cell line having increased expression of BCL6 protein due to exposure of doxycycline and (ii) a T-Rex 293 cell line lacking increased expression of BCL6 protein.
(§4) The following types of cells were prepared for this experiment: (i) a T-Rex 293 cell line having increased expression of BCL6 protein due to exposure to doxycycline and (ii) a T-Rex 293 cell line lacking increased expression of BCL6 protein. Ability of the test compounds to inhibit proliferation of the foregoing cell types was evaluated according to the procedures set forth below.
(§5) The doxycycline-inducible BCL6 protein expressing cell line was established using the following protocol: T-Rex 293 cells were purchased from Invitrogen (Cat #R71007) and transfected using Lipofectamine 2000 with the wild-type BCL6 protein sequence cloned into the pcDNA4/TO vector. Transfected cells were selected using 400 μg/mL Zeocin (Invitrogen Cat #R25001). Following selection, single clones were raised and maintained in Dulbecco's Modified Eagle Medium (DMEM) supplemented with 10% w/w Tetracycline-free fetal bovine serum (FBS) and 250 μg/mL Zeocin. Clones were analyzed for expression of BCL6 protein in the presence and absence of 10 ng/mL doxycycline (Sigma Cat #D9891), and a single doxycycline-inducible clone (hereinafter “SC”) was selected for use in downstream assays.
(§6) The SC cells were seeded on poly-D-lysine coated, black clear-bottom 384-well plates at 2500/well, in 25 μL Dulbecco's Modified Eagle Medium (DMEM) supplemented with 10% w/w Tetracycline-free fetal bovine serum (FBS) and 1% w/w pen-strep, with or without 10 ng/mL doxycycline. Pen-Strep is a commercially available mixture of penicillin G and streptomycin, which is used in mammalian cell culture media to prevent bacterial contamination. Dulbecco's Modified Eagle Medium (DMEM) supplemented with 10% w/w Tetracycline-free fetal bovine serum (FBS) and 1% w/w pen-strep, with or without 10 ng/mL doxycycline is herein referred to as Treatment Medium. Following seeding of cells in the plates, the plates were spun at 300×g for 30 seconds, then equilibrated to room temperature for 30 minutes, and then deposited in a humidified tissue culture incubator maintained at 37° C. with 5% CO2.
(§7) At 24 hours after seeding of the cells, dilutions of test compound were prepared in DMSO and dissolved in Treatment Medium, to achieve a final DMSO concentration of 0.5% w/w, thereby providing the Test Compound Solution. A 25 μL aliquot of the Test Compound Solution was added to cells in the well plates. An equal volume of a solution containing DMSO and Treatment Medium was used as a negative control. Following treatment of cells with Test Compound Solution or said equal volume of a solution containing DMSO and Treatment Medium, the plates were spun at 300×g for 30 seconds, and then left in an incubator for 72 hours.
(§8) At the end of the treatment duration, cell viability was quantified with CellTiter-Glo 2.0 reagent (Promega Cat #G9243). For this purpose, plates were equilibrated to room temperature for 30 minutes, and then 25 μL of CellTiter-Glo 2.0 reagent was added to cells in the plate wells. Plates were then agitated on a shaker for two minutes at 500 rpm and subsequently incubated at room temperature for 10 minutes. Following incubation, the plates were spun at 3000×g for 30 seconds, then sealed with an optical adhesive cover, and luminescence readings were measured with an EnVision Plate Reader (Perkin Elmer).
(§9) Data was normalized using zero luminescence for baseline. A four-parameter non-linear regression curve fit was applied to dose-response data in GraphPad Prism data analysis software to determine the half-maximal growth inhibitory concentration (GI50) for each test compound.
A general note: Cellular ATP, detected with luciferase, serves as a proxy for viable cell number.

Assay [3] addresses T2, His-tagged BRD4 BD1 (46-168) (Homo sapiens, UniProt O60885).
T2 construct: His-tagged BRD4 BD1 (46-168) and biotinylated histone H4K5/8/12/16(Ac) peptide
Description: AlphaLISA competition assay, BRD4 BD1. Type of assay: binding. The note with it: BRD4-BD1, AlphaLISA competition with biotinylated histone H4K5/8/12/16(Ac) peptide, 10 nM. As for the experimental part: as §1, §2

Assay [4] concerns T-Rex 293 cell line SC cells having increased expression of BCL6 protein. Description: Cellular growth inhibition assay, T-Rex 293 SC cells with doxycycline (CellTiter-Glo). Type of assay: cell-based. The note with it: T-Rex 293 SC cells with 10 ng/mL doxycycline (increased BCL6 expression), 72 hours, CellTiter-Glo 2.0. Here is the method: as §3, §4, §5, §6, §7, §8, §9

Some results are limits rather than exact numbers.

Experimental findings from US20260028338A1, “HETEROBIFUNCTIONAL COMPOUNDS AND METHODS OF TREATING DISEASE” (Halda Therapeutics OpCo, Inc., priority 2023, published 2026) are described below.

For `CCS(=O)(=O)Nc1ccc(Oc2cccc(CCN3CCN(CC4CCN(c5ncc(Cl)c(Nc6ccc7c(c6)cc(OCC(=O)NC)c(=O)n7C)n5)CC4)CC3)c2)c(-c2cn(C)c(=O)c3[nH]ccc23)c1` [Compound I-17], the IC50 in assay [1] and in assay [3] was 5 to 50 nM each time. The GI50 in assay [2] is less than 500 nM; in assay [4], greater than 3000 nM.
For `CCS(=O)(=O)Nc1ccc(Oc2ccc(OCCN3CCN(CC4CCN(c5ncc(Cl)c(Nc6ccc7c(c6)cc(OCC(=O)NC)c(=O)n7C)n5)CC4)CC3)cc2)c(-c2cn(C)c(=O)c3[nH]ccc23)c1` [Compound I-7], the concentration for half-maximal inhibition (IC50) in assay [1] and in assay [3] was 5 to 50 nM throughout. In addition, the 50% growth inhibitory concentration (GI50) in assay [2] and in assay [4] was less than 500 nM in each case.
For the molecule `CCS(=O)(=O)Nc1ccc(Oc2ccc(OCCN3CCN(CCC4CCN(c5ncc(Cl)c(Nc6ccc7c(c6)cc(OCC(=O)NC)c(=O)n7C)n5)CC4)CC3)cc2)c(-c2cn(C)c(=O)c3[nH]ccc23)c1` [Compound I-14], the IC50 in assay [1] was less than 5 nM; in assay [3], 5 to 50 nM. Further, the GI50 is 500 to 1500 nM in assay [2] and less than 500 nM in assay [4].
With `CCS(=O)(=O)Nc1ccc(Oc2cccc(OCCCN3CCN(CC4CCN(c5ncc(Cl)c(Nc6ccc7c(c6)cc(OCC(=O)NC)c(=O)n7C)n5)CC4)CC3)c2)c(-c2cn(C)c(=O)c3[nH]ccc23)c1` [Compound I-6], the half-maximal inhibitory concentration (IC50) in assay [1] and in assay [3] was 5 to 50 nM each time. Further, the GI50 in assay [2] and in assay [4] was less than 500 nM throughout.
On to `CCS(=O)(=O)Nc1ccc(Oc2ccc(CCN3CCN(CC4CCN(c5ncc(Cl)c(Nc6ccc7c(c6)cc(OCC(=O)NC)c(=O)n7C)n5)CC4)CC3)cc2)c(-c2cn(C)c(=O)c3[nH]ccc23)c1` [Compound I-16, 2-[[6-[[5-chloro-2-[4-[[4-[2-[4-[4-(ethylsulfonylamino)-2-(6-methyl-7-oxo-1H-pyrrolo[2,3-c]pyridin-4-yl)phenoxy]phenyl]ethyl]piperazin-1-yl]methyl]-1-piperidyl]pyrimidin-4-yl]amino]-1-methyl-2-oxo-3-quinolyl]oxy]-N-methyl-acetamide], for which the values for the half-maximal inhibitory concentration (IC50) in assay [1] and in assay [3] were less than 5 nM and 5 to 50 nM, respectively. Further, the concentration for 50% growth inhibition (GI50) in assay [2] and in assay [4] was less than 500 nM in each case.
As for `CCS(=O)(=O)Nc1ccc(Oc2cccc(OCCN3CCN(CCCC4CCN(c5ncc(Cl)c(Nc6ccc7c(c6)cc(OCC(=O)NC)c(=O)n7C)n5)CC4)CC3)c2)c(-c2cn(C)c(=O)c3[nH]ccc23)c1` [Compound I-11], the IC50 in assay [1] and in assay [3] was 5 to 50 nM each time. For the same molecule, the GI50 in assay [2] and in assay [4] was less than 500 nM throughout.
For the molecule `CCS(=O)(=O)Nc1ccc(Oc2ccc(OCCN3CCN(CCCC4CCN(c5ncc(Cl)c(Nc6ccc7c(c6)cc(OCC(=O)NC)c(=O)n7C)n5)CC4)CC3)cc2)c(-c2cn(C)c(=O)c3[nH]ccc23)c1` [Compound I-12], the IC50 in assay [1] and in assay [3] was 5 to 50 nM throughout. Besides, the GI50 in assay [2] and in assay [4] was less than 500 nM throughout.
With `CCS(=O)(=O)Nc1ccc(Oc2cccc(OCCCCN3CCN(CC4CCN(c5ncc(Cl)c(Nc6ccc7c(c6)cc(OCC(=O)NC)c(=O)n7C)n5)CC4)CC3)c2)c(-c2cn(C)c(=O)c3[nH]ccc23)c1` [Compound I-9], the half-inhibitory concentration (IC50) in assay [1] and in assay [3] was 5 to 50 nM each time. Also, the GI50 in assay [2] and in assay [4] was less than 500 nM throughout.
`CCS(=O)(=O)Nc1ccc(Oc2ccc(OCCCN3CCN(CC4CCN(c5ncc(Cl)c(Nc6ccc7c(c6)cc(OCC(=O)NC)c(=O)n7C)n5)CC4)CC3)cc2)c(-c2cn(C)c(=O)c3[nH]ccc23)c1` [Compound I-8]: the concentration for half-maximal inhibition (IC50) in assay [1] and in assay [3] was 5 to 50 nM in each case. The GI50 in assay [2] and in assay [4] was less than 500 nM throughout.
As to `CCS(=O)(=O)Nc1ccc(Oc2ccc(OCCCCN3CCN(CC4CCN(c5ncc(Cl)c(Nc6ccc7c(c6)cc(OCC(=O)NC)c(=O)n7C)n5)CC4)CC3)cc2)c(-c2cn(C)c(=O)c3[nH]ccc23)c1` [Compound I-10], the results for the IC50 in assay [1] and in assay [3] were less than 5 nM and 5 to 50 nM, respectively. The GI50 in assay [2] and in assay [4] was less than 500 nM each time.

As a reminder, the IC50 is the point on the concentration scale where inhibition reaches its midpoint. By GI50 is commonly meant the concentration giving 50% growth inhibition. A high value points to less potent growth inhibition.
